According to patent US20250136592A1, “C-LINKED INHIBITORS OF ENL/AF9 YEATS” (Bridge Medicines, priority 2021, published 2025):
Like-named read-outs stand apart in the source and are kept apart here.

Columns and labels:
[1] = system: MV4:11 (MLL-AF4 MLL) cells; experiment: Cell viability assay (CellTiter-Glo), 12 days; format: cell-based; conditions: MV4;11 cells, 12 day, read-out: CTG_MV4, 11 12 DAY_EC50
Experimental: The assays were conducted over 12 days and the cells being split on days 4 and 8. […] Blank wells received cell culture medium. Plates were incubated for 4 days at 37° C. with 5% CO2. On days 4 and day 8 the cells were split and incubated for a further 4 days whilst an aliquot of cells were taken for the CTG readout. For the cell splitting, 270 nL of compounds or DMSO was added to a new 96 well cell culture plate to which 90 μL of medium plus 10 μL of cells from the original assay plate (after mixing) or 100 μL of medium (Blank wells) was added. This was repeated on day 8.
Cell viability was assessed using the CellTiter-Glo® homogeneous luminescent assay kit (Promega, G9243), according to the manufacturer's instructions. This quantifies ATP, which indicates the presence of metabolically active cells. […] The resulting data were analyzed as follows:
where vehicle are cells treated with 0.3% DMSO, Blank is culture medium. IC50 determinations were calculated by fitting the curve using XLfit (v5.3.1.3): Y=Bottom+(Top−Bottom)/(1+10^((LogIC50−X)*HillSlope)).

ENL YEATS domain = ENL YEATS domain (Homo sapiens (Human), UniProt Q03111); experiment: TR-FRET ENL Screening Assay; conditions: 6xHIS ENL YEATS domain binding to H3K9cr peptide
Experimental: Compounds of the invention were tested in a TR-FRET ENL Screening Assay. TR-FRET (time-resolved fluorescence energy transfer) can be used to quantify ENL YEATS domain binding to a crotonylated histone peptide (H3K9cr, aa1-20). Streptavidin-Europium (Eu) chelate binds the biotinylated peptide, while Anti-6×HIS ULight™ binds 6×HIS-ENL. When Eu chelate is excited at 320 nm, fluorescence resonance energy transfer (FRET) occurs if Eu and ULight are made proximal by ENL binding to the acyl-peptide.
Low control (LC) wells received 5 μL of assay buffer instead of ENL protein. […] The response at each compound concentration minus the LC value was converted to percent inhibition of the vehicle control group response (HC-LC).

ENL YEATS domain, sequence (Q03111 1-138): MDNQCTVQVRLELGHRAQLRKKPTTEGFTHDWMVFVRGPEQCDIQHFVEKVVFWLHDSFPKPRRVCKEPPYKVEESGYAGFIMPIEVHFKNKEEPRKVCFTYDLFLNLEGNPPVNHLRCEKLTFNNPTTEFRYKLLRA

Row | Structure (SMILES) | EC50 ([1]; Homo sapiens, 288 h) [nM] | IC50 (ENL YEATS domain) [nM] | EC50 [1] [nM]
1 | Cc1cc2ccc(C(=O)Nc3cc4[nH]c([C@H]5CCCN5C)cc4cn3)cn2n1 [Example 1, 2-methyl-N-{2-[(2R)-1-methylpyrrolidin-2-yl]-1H-pyrrolo[3,2-c]pyridin-6-yl}pyrazolo[1,5-a]pyridine-6-carboxamide] | 3250 | – | –
2 | CN1CCCC1c1nc2cnc(NC(=O)c3ccc4c(cnn4C)c3)cc2[nH]1 (stereo not shown) [Example 2, 1-methyl-N-(2-(1-methylpyrrolidin-2-yl)-1H-imidazo[4,5-c]pyridin-6-yl)-1H-indazole-5-carboxamide] | 1320 | – | –
3 | CN1CCC[C@@H]1c1nc2cc(NC(=O)c3ccc4c(cnn4-c4ccncc4)c3)ccc2[nH]1 [Example 3, (R)—N-(2-(1-methylpyrrolidin-2-yl)-1H-benzo[d]imidazol-5-yl)-1-(pyridin-4-yl)-1H-indazole-5-carboxamide] | 571 | – | –
4 | CC(O)c1ncc2cc(C(=O)Nc3cc4[nH]c([C@H]5CCCN5C)cc4cn3)ccn12 (stereo partly drawn) [Example 4, 3-(1-hydroxyethyl)-N-(2-((R)-1-methylpyrrolidin-2-yl)-1H-pyrrolo[3,2-c]pyridin-6-yl) imidazo[1,5-a]pyridine-7-carboxamide] | – | 203 | 4370
5 | CN1CCC[C@@H]1c1cc2cnc(NC(=O)c3cc4c(cn3)cnn4C)cc2[nH]1 [Example 5, (R)-1-methyl-N-(2-(1-methylpyrrolidin-2-yl)-1H-pyrrolo[3,2-c]pyridin-6-yl)-1H-pyrazolo[4,3-c]pyridine-6-carboxamide] | – | 1240 | –
6 | CN1CCC[C@@H]1c1cc2cnc(NC(=O)c3ccn4c(C5COC5)ncc4c3)cc2[nH]1 [Example 6, (R)—N-(2-(1-methylpyrrolidin-2-yl)-1H-pyrrolo[3,2-c]pyridin-6-yl)-3-(oxetan-3-yl) imidazo[1,5-a]pyridine-7-carboxamide] | – | 106 | 33
7 | CN1CCC[C@@H]1c1nc2cc(NC(=O)c3cc4cnn(-c5ccncc5)c4cc3F)ccc2[nH]1 [Example 7, (R)-6-fluoro-N-(2-(1-methylpyrrolidin-2-yl)-1H-benzo[d]imidazol-5-yl)-1-(pyridin-4-yl)-1H-indazole-5-carboxamide] | 101 | 142 | –
8 | CN1CCCC[C@@H]1c1cc2cnc(NC(=O)c3ccc4cnn(C)c4c3)cc2[nH]1 [Example 8, 1-methyl-N-[2-[(2R)-1-methylpiperidin-2-yl]-1H-pyrrolo[3,2-c]pyridin-6-yl]indazole-6-carboxamide] | 123 | 100 | –
9 | CN1CCCCC1c1nc2cc(NC(=O)c3ccc4c(cnn4C)c3)ccc2[nH]1 (stereo not shown) [Example 9, 1-methyl-N-[2-(1-methylpiperidin-2-yl)-1H-1,3-benzodiazol-5-yl]indazole-5-carboxamide] | – | 200 | –
10 | CN1CCC[C@@H]1c1nc2ccc(NC(=O)c3ccc4c(C5CC5)nn(C)c4c3)cc2[nH]1 [Example 10] | 280 | – | –
11 | Cc1noc2ccc(C(=O)Nc3ccc4nc([C@H]5CCCN5C)[nH]c4c3)cc12 [Example 11] | – | 465 | –
12 | Cc1noc2cc(C(=O)Nc3ccc4nc(C5CCCN5C)[nH]c4c3)ccc12 (stereo not shown) [Example 12] | 201 | 78 | –
13 | CN1CCC[C@@H]1c1nc2cc(NC(=O)c3ccc4c(-c5ccncc5)noc4c3)ccc2[nH]1 [Example 13] | 359 | – | –
14 | Cc1noc2cc(C(=O)Nc3ccc4nc([C@H]5CCCN5C)[nH]c4c3)c(F)cc12 [Example 14] | 4640 | 178 | –
15 | CN1CCC[C@@H]1c1nc2ccc(NC(=O)c3cc4cccnc4cc3F)cc2[nH]1 [Example 16] | 106 | – | –
16 | CN1CCC[C@@H]1c1nc2ccc(NC(=O)c3ccc4onc(C5CC5)c4c3)cc2[nH]1 [Example 17] | 3250 | – | –
17 | Cc1noc2c(F)c(C(=O)Nc3ccc4nc([C@H]5CCCN5C)[nH]c4c3)ccc12 [Example 18] | – | 125 | –
18 | CN1CCC[C@@H]1c1nc2cc(NC(=O)c3ccc4c(cnn4-c4ccccn4)c3)ccc2[nH]1 [Example 21] | – | 200 | –
19 | CN1CCC[C@@H]1c1nc2cc(NC(=O)c3ccc4c(cnn4-c4cccnc4)c3)ccc2[nH]1 [Example 22] | – | 131 | –
20 | CN1CCC[C@@H]1c1nc2cc(NC(=O)c3ccc4c(cnn4-c4ccncn4)c3)ccc2[nH]1 [Example 23] | – | 277 | –
21 | CN1CCCC1c1nc2ccc(NC(=O)c3ccc4ncccc4c3)cc2[nH]1 (stereo not shown) [Example 25] | – | 181 | –
22 | CN1CCC[C@@H]1c1nc2cc(NC(=O)c3ccc4c(c3)[nH]c(=O)n4C)ccc2[nH]1 [Example 26] | 374 | 145 | –
23 | Cc1ncc2ccc(C(=O)Nc3cc4[nH]c([C@H]5CCCN5C)cc4cn3)cn12 [Example 28] | 186 | 133 | –
24 | CN1CCC[C@@H]1c1cc2cnc(NC(=O)c3ccc4c(C5CC5)nn(C)c4c3)cc2[nH]1 [Example 29] | 1120 | 21 | –

Row | Structure (SMILES) | EC50 ([1]; Homo sapiens, 288 h) [nM] | IC50 (ENL YEATS domain) [nM] | EC50 [1] [nM]
25 | Cc1noc2cc(C(=O)Nc3cc4[nH]c([C@H]5CCCN5C)cc4cn3)ccc12 [Example 30] | 39 | 51 | –
26 | Cc1n[nH]c2ccc(C(=O)Nc3cc4[nH]c([C@H]5CCCN5C)cc4cn3)cc12 [Example 31] | 91 | 57 | –
27 | Cc1ncn2cc(C(=O)Nc3cc4[nH]c([C@H]5CCCN5C)cc4cn3)ccc12 [Example 32] | 12200 | 58 | –
28 | CN1CCC[C@@H]1c1cc2cnc(NC(=O)c3ccc4[nH]nc(C(F)(F)F)c4c3)cc2[nH]1 [Example 33] | 1780 | 42 | –
29 | Cc1cnn2cc(C(=O)Nc3cc4[nH]c([C@H]5CCCN5C)cc4cn3)ccc12 [Example 34] | 570 | 48 | –
30 | CN1CCC[C@@H]1c1cc2cnc(NC(=O)c3ccn4c(C(F)(F)F)ncc4c3)cc2[nH]1 [Example 35] | 269 | 114 | –
31 | Cc1cnn2ccc(C(=O)Nc3cc4[nH]c([C@H]5CCCN5C)cc4cn3)cc12 [Example 36] | 853 | 43 | –
32 | CN1CCC[C@@H]1c1cc2cnc(NC(=O)c3ccc4c(C(F)(F)F)ncn4c3)cc2[nH]1 [Example 37] | 47 | 55 | –
33 | CN1CCC[C@@H]1c1cc2cnc(NC(=O)c3ccc4cnn(C)c4c3)cc2[nH]1 [Example 38] | 87 | 94 | –
34 | CN1CCC[C@@H]1c1cc2cnc(NC(=O)c3ccc4c(C(F)(F)F)nn(C)c4c3)cc2[nH]1 [Example 39] | 2780 | 43 | –
35 | CN1CCC[C@@H]1c1cc2cnc(NC(=O)c3cnc4c(ccn4C)c3)cc2[nH]1 [Example 44] | – | 780 | –
36 | CN1CCC[C@@H]1c1cc2cnc(NC(=O)c3ccc4c(c3)[nH]c(=O)n4C)cc2[nH]1 [Example 48] | – | 30 | –
37 | COc1nccc2cc(C(=O)Nc3cc4[nH]c([C@H]5CCCN5C)cc4cn3)ccc12 [Example 52] | – | 25 | –
38 | Cc1nc(C(F)(F)F)c2ccc(C(=O)Nc3cc4[nH]c([C@H]5CCCN5C)cc4cn3)cn12 [Example 53] | 5290 | – | –
39 | Cc1nc(C)n2cc(C(=O)Nc3cc4[nH]c([C@H]5CCCN5C)cc4cn3)ccc12 [Example 71] | 220 | – | –
40 | Cc1ccc2cc(C(=O)Nc3cnc4cc([C@H]5CCCN5C)[nH]c4c3)c(F)cc2n1 [Example 73] | 1420 | – | –
41 | CNc1nccc2cc(C(=O)Nc3cc4[nH]c([C@H]5CCCN5C)cc4cn3)ccc12 [Example 79, (R)-1-(methylamino)-N-(2-(1-methylpyrrolidin-2-yl)-1H-pyrrolo[3,2-c]pyridin-6-yl) isoquinoline-6-carboxamide] | 446 | – | –
42 | Cc1nccc2cc(C(=O)Nc3cc4[nH]c([C@H]5CCCCN5C)cc4cn3)ccc12 [Example 80, (R)-1-methyl-N-(2-(1-methylpiperidin-2-yl)-1H-pyrrolo[3,2-c]pyridin-6-yl) isoquinoline-6-carboxamide] | 187 | – | –
43 | CN1CCC[C@@H]1c1cc2cnc(NC(=O)c3ccc4c(c3)nnn4-c3ccncc3)cc2[nH]1 [Example 85] | 488 | – | –
44 | CN1CCCC[C@@H]1c1cc2cnc(NC(=O)c3ccc4nnn(C)c4c3)cc2[nH]1 [Example 91, (R)-1-methyl-N-(2-(1-methylpiperidin-2-yl)-1H-pyrrolo[3,2-c]pyridin-6-yl)-1H-benzo[d][1,2,3]triazole-6-carboxamide] | 215 | – | –
45 | CN1C(=O)Cc2cc(C(=O)Nc3cc4[nH]c([C@H]5CCCCN5C)cc4cn3)ccc21 [Example 95] | 451 | – | –
46 | CN1CCCC[C@@H]1c1cc2cnc(NC(=O)c3ccc4cc(=O)n(C)n4c3)cc2[nH]1 [Example 97] | 146 | – | –
47 | CN1CCCC[C@@H]1c1cc2cnc(NC(=O)c3ccc4c(cnn4C)c3)cc2[nH]1 [Example 98] | 440 | – | –
48 | CN1CCCC[C@@H]1c1cc2cnc(NC(=O)c3ccc4c(=O)n(C)ccc4c3)cc2[nH]1 [Example 100, (R)-2-methyl-N-(2-(1-methylpiperidin-2-yl)-1H-pyrrolo[3,2-c]pyridin-6-yl)-1-oxo-1,2-dihydroisoquinoline-6-carboxamide] | 202 | – | –
